In the first assay the target is T1, Human TRPC6 (Homo sapiens, UniProt Q9Y210).
T1 construct: expressed in transfected cells
T1 sequence (Q9Y210 1-931): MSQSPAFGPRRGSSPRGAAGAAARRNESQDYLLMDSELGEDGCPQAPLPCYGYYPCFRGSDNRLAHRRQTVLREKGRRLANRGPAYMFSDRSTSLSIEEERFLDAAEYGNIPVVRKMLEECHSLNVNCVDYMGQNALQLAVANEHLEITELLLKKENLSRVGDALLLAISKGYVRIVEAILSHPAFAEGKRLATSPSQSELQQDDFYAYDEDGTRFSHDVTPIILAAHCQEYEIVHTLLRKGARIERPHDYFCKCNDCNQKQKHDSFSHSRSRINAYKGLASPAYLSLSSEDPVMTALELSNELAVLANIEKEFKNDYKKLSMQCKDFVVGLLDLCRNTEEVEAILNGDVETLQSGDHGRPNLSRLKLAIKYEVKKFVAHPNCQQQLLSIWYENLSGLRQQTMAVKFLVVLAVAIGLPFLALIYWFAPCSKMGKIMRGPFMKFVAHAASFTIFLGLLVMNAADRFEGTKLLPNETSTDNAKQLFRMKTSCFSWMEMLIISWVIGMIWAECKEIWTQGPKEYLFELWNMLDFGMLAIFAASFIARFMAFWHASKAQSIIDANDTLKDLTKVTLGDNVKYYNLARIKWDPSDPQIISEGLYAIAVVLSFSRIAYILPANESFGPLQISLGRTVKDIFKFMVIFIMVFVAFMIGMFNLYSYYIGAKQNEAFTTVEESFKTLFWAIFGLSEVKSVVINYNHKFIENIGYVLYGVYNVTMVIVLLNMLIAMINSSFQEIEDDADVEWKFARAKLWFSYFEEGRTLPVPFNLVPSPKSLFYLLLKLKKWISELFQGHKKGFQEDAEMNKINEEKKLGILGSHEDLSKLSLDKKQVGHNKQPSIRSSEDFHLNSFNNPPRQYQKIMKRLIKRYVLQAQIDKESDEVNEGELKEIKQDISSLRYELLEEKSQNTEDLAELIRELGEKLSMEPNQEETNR
Kind of assay: Evaluation of TRPC6 channel inhibitory activity (1), FLIPR Calcium 5 Assay Kit, OAG stimulation (Compound Nos. 1-1293). Type of assay: cell-based.
Settings: not given
The method in brief: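 Stable human TRPC6 line; fluorescent Ca2+ dye loading, then 20 min compound exposure before 30 μM OAG trigger. Peak-minus-baseline signal converted to % inhibition against untreated and unstimulated wells; potency given as pIC50 band.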
As for `Cn1nc(N2C3CCC2COC3)cc1Oc1cc(C#N)ccc1-c1ncc(CN)cn1` [compound 944, 4-[5-(aminomethyl)pyrimidin-2-yl]-3-[2-methyl-5-(3-oxa-8-azabicyclo[3.2.1]octan-8-yl)pyrazol-3-yl]oxybenzonitrile], the IC50 lay within 10 to 1000 nM.

The assay is the same for the next values; noted with them: Human TRPC6 stably-expressing cells, OAG 30 μM, FLIPR Calcium 5 Assay Kit; read-out: Inhibitory activity (pIC50 class) (converted).
Take `Cn1nc(C2CCC2)cc1Oc1cc(C#N)ccc1-c1ccc(CCN)cn1` [Compound 237, 4-[5-(2-aminoethyl)pyridin-2-yl]-3-(5-cyclobutyl-2-methylpyrazol-3-yl)oxybenzonitrile]: the IC50 is less than 10 nM.

Regarding `N#Cc1ccc(-c2ncc(CCN)cn2)c(Oc2nnc(N3CCCC3)s2)c1` [compound 726, 4-[5-(2-aminoethyl)pyrimidin-2-yl]-3-[(5-pyrrolidin-1-yl-1,3,4-thiadiazol-2-yl)oxy]benzonitrile], the IC50 was 10 to 1000 nM.

Take `CN(C)c1cc(Cc2cc(C#N)ccc2-c2ncc(CN)cn2)n(C)n1` [compound 1209, 4-[5-(aminomethyl)pyrimidin-2-yl]-3-[[5-(dimethylamino)-2-methylpyrazol-3-yl]methyl]benzonitrile]: the IC50 was 10 to 1000 nM.

With `Cn1nc(-c2ccc(F)cc2)cc1Oc1cc(C#N)ccc1-c1ccc(CCN)cn1` [Compound 185, 4-[5-(2-aminoethyl)pyridin-2-yl]-3-[5-(4-fluorophenyl)-2-methylpyrazol-3-yl]oxybenzonitrile], the IC50 was less than 10 nM.

With `CCN(CC)c1cc(Oc2cc(C#N)ccc2-c2ncc(CCN)cn2)nc(C)n1` [compound 856, 4-[5-(2-aminoethyl)pyrimidin-2-yl]-3-[6-(diethylamino)-2-methylpyrimidin-4-yl]oxybenzonitrile], the IC50 was less than 10 nM.

In the case of `Cn1nc(N2CCOCC2)cc1C(=O)c1cc(C#N)ccc1-c1ncc(CN)cn1` [Compound No. 1028, 4-[5-(Aminomethyl)pyrimidin-2-yl]-3-(2-methyl-5-morpholin-4-ylpyrazole-3-carbonyl)benzonitrile], the IC50 was less than 10 nM.

For `Cc1nn(C(C)C)cc1C(=O)c1cc(C#N)ccc1-c1ncc(CN)cn1` [compound 1054, 4-[5-(aminomethyl)pyrimidin-2-yl]-3-(3-methyl-1-propan-2-ylpyrazole-4-carbonyl)benzonitrile], the IC50 was less than 10 nM.

`CN(C)C(=O)c1cc(Oc2cc(C#N)ccc2-c2ncc(CN)cn2)n(C)n1` [compound 956, 5-[2-[5-(aminomethyl)pyrimidin-2-yl]-5-cyanophenoxy]-N,N,1-trimethylpyrazole-3-carboxamide]: the IC50 is 10 to 1000 nM.

With `N#Cc1ccc(-c2ccc(CCN)nc2)c(Oc2cnnc(N3CCOCC3)c2)c1` [Compound 77, 4-[6-(2-aminoethyl)pyridin-3-yl]-3-(6-morpholin-4-ylpyridazin-4-yl)oxybenzonitrile], the IC50 was more than 1000 nM.

Consider `N#Cc1ccc(-c2ccc(CCN)nc2)c(Oc2cnnc(-c3ccccc3)c2)c1` [Compound 102, 4-[6-(2-aminoethyl)pyridin-3-yl]-3-(6-phenylpyridazin-4-yl)oxybenzonitrile], for which the IC50 is 10 to 1000 nM.

Regarding `N#Cc1ccc(-c2ccc(CCN)cn2)c(Cn2cnc(-c3ccccn3)c2)c1` [compound 1160, 4-[5-(2-aminoethyl)pyridin-2-yl]-3-[(4-pyridin-2-ylimidazol-1-yl)methyl]benzonitrile], the IC50 was more than 1000 nM.

Take `Cc1nc(Oc2cc(C#N)ccc2-c2ccc3c(c2)CNCC3)cc(N2CCOCC2)n1` [Compound 95, 3-(2-methyl-6-morpholin-4-ylpyrimidin-4-yl)oxy-4-(1,2,3,4-tetrahydroisoquinolin-7-yl)benzonitrile]: the IC50 is more than 1000 nM.

Regarding `CCN(CC)c1cc(Oc2cc(C#N)ccc2-c2ccc([C@@H](F)CN)cn2)n(C)n1` [compound 916, 4-[5-[(1R)-2-amino-1-fluoroethyl]pyridin-2-yl]-3-[5-(diethylamino)-2-methylpyrazol-3-yl]oxybenzonitrile], the IC50 was less than 10 nM.

`Cn1nc(-c2ccccn2)cc1Oc1cc(C#N)ccc1-c1ncc(CCN)cn1` [Compound 285, 4-[5-(2-aminoethyl)pyrimidin-2-yl]-3-(2-methyl-5-pyridin-2-ylpyrazol-3-yl)oxybenzonitrile]: the IC50 was less than 10 nM.

In the case of `Cc1cc(Oc2cc(C#N)ccc2-c2ncc(CCN)cn2)cc(N2CCCC2)n1` [Compound 262, 4-[5-(2-aminoethyl)pyrimidin-2-yl]-3-(2-methyl-6-pyrrolidin-1-ylpyridin-4-yl)oxybenzonitrile], the IC50 was less than 10 nM.

As for `CC(N)c1ccc(-c2ccc(C#N)cc2Oc2cc(-c3ccccn3)nn2C)nc1` (stereo not drawn) [compound 396, 4-[5-(1-aminoethyl)pyridin-2-yl]-3-(2-methyl-5-pyridin-2-ylpyrazol-3-yl)oxybenzonitrile], the IC50 was less than 10 nM.

As for `CN(C)c1cc(C(=O)c2cc(C#N)ccc2-c2ncc(CCN)cn2)n(C)n1` [compound 1043, 4-[5-(2-aminoethyl)pyrimidin-2-yl]-3-[5-(dimethylamino)-2-methylpyrazole-3-carbonyl]benzonitrile], the IC50 was less than 10 nM.

Take `N#Cc1ccc(-c2ccc(CCN)nc2)c(Cn2cnc(-c3ccccc3)c2)c1` [compound 1132, 4-[6-(2-aminoethyl)pyridin-3-yl]-3-[(4-phenylimidazol-1-yl)methyl]benzonitrile]: the IC50 is 10 to 1000 nM.

In the case of `Cn1nc(C2CCOCC2)cc1Oc1cc(F)ccc1-c1ncc(CN)cn1` [compound 1007, [2-[4-fluoro-2-[2-methyl-5-(oxan-4-yl)pyrazol-3-yl]oxyphenyl]pyrimidin-5-yl]methanamine], the IC50 was 10 to 1000 nM.

`Cc1nn(CC(C)C)cc1Oc1cc(F)ccc1-c1ncc(CCN)cn1` [Compound No. 966, 2-[2-[4-Fluoro-2-[3-methyl-1-(2-methylpropyl)pyrazol-4-yl]oxyphenyl]pyrimidin-5-yl]ethanamine]: the IC50 was less than 10 nM.

Regarding `Cc1nc(Oc2cc(C#N)ccc2-n2cc([C@@H](O)CN)cn2)cc(N2CCC(F)(F)CC2)n1` [Compound 256, 4-[4-[(1R)-2-amino-1-hydroxyethyl]pyrazol-1-yl]-3-[6-(4,4-difluoropiperidin-1-yl)-2-methylpyrimidin-4-yl]oxybenzonitrile], the IC50 was 10 to 1000 nM.

Regarding `Cn1nc(-c2ccccc2)cc1Oc1cc(C#N)ccc1-c1ncc(CN)cn1` [compound 310, 4-[5-(aminomethyl)pyrimidin-2-yl]-3-(2-methyl-5-phenylpyrazol-3-yl)oxybenzonitrile], the IC50 is less than 10 nM.

`CCc1nn(CC(C)C)cc1Oc1cc(C#N)ccc1-c1ncc(CCN)cn1` [compound 953, 4-[5-(2-aminoethyl)pyrimidin-2-yl]-3-[3-ethyl-1-(2-methylpropyl)pyrazol-4-yl]oxybenzonitrile]: the IC50 is less than 10 nM.

In the case of `Cn1nc(-c2cccc(F)c2)cc1Oc1cc(C#N)ccc1-c1ccc(CCN)nc1` [Compound 187, 4-[6-(2-aminoethyl)pyridin-3-yl]-3-[5-(3-fluorophenyl)-2-methylpyrazol-3-yl]oxybenzonitrile], the IC50 was less than 10 nM.

As to `Cn1nc(-c2ccccc2)cc1Oc1cc(Cl)ncc1-c1ccc(CN)cn1` [compound 1291, [6-[6-chloro-4-(2-methyl-5-phenylpyrazol-3-yl)oxypyridin-3-yl]pyridin-3-yl]methanamine], the IC50 is more than 1000 nM.

Consider `Cc1cc(Sc2cc(C#N)ccc2-c2ncc(CCN)cn2)cc(N2CCOCC2)n1` [compound 1260, 4-[5-(2-aminoethyl)pyrimidin-2-yl]-3-(2-methyl-6-morpholin-4-ylpyridin-4-yl)sulfanylbenzonitrile], for which the IC50 is 10 to 1000 nM.

On to `Cn1nc(-c2ccccc2)cc1Oc1cc(C#N)ccc1-c1ccc([C@H](O)CN)cn1` [compound 366, 4-[5-[(1S)-2-amino-1-hydroxyethyl]pyridin-2-yl]-3-(2-methyl-5-phenylpyrazol-3-yl)oxybenzonitrile], for which the IC50 is less than 10 nM.

For the compound `N#Cc1ccc(-c2ncc(CCN)cn2)c(Cn2cc(C3CCCCC3)nn2)c1` [compound 1186, 4-[5-(2-aminoethyl)pyrimidin-2-yl]-3-[(4-cyclohexyltriazol-1-yl)methyl]benzonitrile], the IC50 was less than 10 nM.

Take `Cc1nc(Oc2cc(C#N)ccc2-c2ncc([C@H](O)CN)cn2)cc(N2CCOC(C)(C)C2)n1` [compound 561, 4-[5-[(1S)-2-amino-1-hydroxyethyl]pyrimidin-2-yl]-3-[6-(2,2-dimethylmorpholin-4-yl)-2-methylpyrimidin-4-yl]oxybenzonitrile]: the IC50 is 10 to 1000 nM.

Source of the values: patent US20230167073A1 (Teijin Pharma Limited, priority 2020, published 2023).
